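Dose response: 5 concentrations. Exposure: 48 h. Format: 96-well plates. Endpoint: linear interpolation; highest concentration if not reached. Abbreviation: GI50, concentration required for 50% inhibition of growth.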 Calls of active or inactive are those of the source. No stated cut-off is given here; in the data, active = GI50 up to about 1.1 µM and inactive = higher.
Experiments:
Assay in all cases: growth of human tumour cells (NCI), 48 h
786-0 = tested on: 786-0
A549 = tested on: A549
ACHN = tested on: ACHN
BT-549 = tested on: BT-549
CAKI-1 = tested on: CAKI-1
CCRF-CEM = tested on: CCRF-CEM
COLO 205 = tested on: COLO 205
DU-145 = tested on: DU-145
EKVX = tested on: EKVX
HCC 2998 = tested on: HCC 2998
HCT-116 = tested on: HCT-116
HCT-15 = tested on: HCT-15
HL-60 = tested on: HL-60
HOP-62 = tested on: HOP-62
HOP-92 = tested on: HOP-92
HT-29 = tested on: HT-29
Hs-578T = tested on: Hs-578T
IGROV-1 = tested on: IGROV-1
KM12 = tested on: KM12
LOX IMVI = tested on: LOX IMVI
M14 = tested on: M14
MCF7 = tested on: MCF7
MDA-MB-231 = tested on: MDA-MB-231
MDA-MB-435 = tested on: MDA-MB-435
MDA-N = tested on: MDA-N
MOLT-4 = tested on: MOLT-4
NCI-H23 = tested on: NCI-H23
NCI-H460 = tested on: NCI-H460
NCI-H522 = tested on: NCI-H522
NCI/ADR-RES = tested on: NCI/ADR-RES
OVCAR-3 = tested on: OVCAR-3
OVCAR-4 = tested on: OVCAR-4
OVCAR-5 = tested on: OVCAR-5
OVCAR-8 = tested on: OVCAR-8
PC-3 = tested on: PC-3
RPMI-8226 = tested on: RPMI-8226
SF-268 = tested on: SF-268
SF-295 = tested on: SF-295
SF-539 = tested on: SF-539
SK-MEL-28 = tested on: SK-MEL-28
SK-MEL-2 = tested on: SK-MEL-2
SK-MEL-5 = tested on: SK-MEL-5
SN12C = tested on: SN12C
SNB-19 = tested on: SNB-19
SNB-75 = tested on: SNB-75
SR = tested on: SR
SW-620 = tested on: SW-620
T47D = tested on: T47D
TK-10 = tested on: TK-10
U-251 = tested on: U-251
UACC-257 = tested on: UACC-257
UACC-62 = tested on: UACC-62
UO-31 = tested on: UO-31
K562 = tested on: K562
NCI-H226 = tested on: NCI-H226
RXF 393 = tested on: RXF 393
SK-OV-3 = tested on: SK-OV-3
A498 = tested on: A498
Malme-3M = tested on: Malme-3M

C#C/C=C\CCCC/C=C\C#CC#CCCCC#CC#C[C@H](COS(=O)(=O)O)OS(=O)(=O)O
GI50 (786-0): > 100 µM (inactive) | GI50 (A549): > 100 µM (inactive) | GI50 (ACHN): > 100 µM (inactive) | GI50 (BT-549): > 100 µM (inactive) | GI50 (CAKI-1): > 100 µM (inactive) | GI50 (CCRF-CEM): > 100 µM (inactive) | GI50 (COLO 205): > 100 µM (inactive) | GI50 (DU-145): > 100 µM (inactive) | GI50 (EKVX): > 100 µM (inactive) | GI50 (HCC 2998): > 100 µM (inactive) | GI50 (HCT-116): > 100 µM (inactive) | GI50 (HCT-15): > 100 µM | GI50 (HL-60): > 100 µM (inactive) | GI50 (HOP-62): > 100 µM (inactive) | GI50 (HOP-92): > 100 µM (inactive) | GI50 (HT-29): > 100 µM (inactive) | GI50 (Hs-578T): > 100 µM (inactive) | GI50 (IGROV-1): > 100 µM (inactive) | GI50 (KM12): > 100 µM (inactive) | GI50 (LOX IMVI): > 100 µM (inactive) | GI50 (M14): > 100 µM (inactive) | GI50 (MCF7): > 100 µM (inactive) | GI50 (MDA-MB-231): > 100 µM (inactive) | GI50 (MDA-MB-435): > 100 µM (inactive) | GI50 (MDA-N): > 100 µM (inactive) | GI50 (MOLT-4): > 100 µM (inactive) | GI50 (NCI-H23): > 100 µM (inactive) | GI50 (NCI-H460): > 100 µM (inactive) | GI50 (NCI-H522): > 100 µM (inactive) | GI50 (NCI/ADR-RES): > 100 µM (inactive) | GI50 (OVCAR-3): > 100 µM (inactive) | GI50 (OVCAR-4): > 100 µM (inactive) | GI50 (OVCAR-5): > 100 µM (inactive) | GI50 (OVCAR-8): > 100 µM (inactive) | GI50 (PC-3): > 100 µM (inactive) | GI50 (RPMI-8226): > 100 µM (inactive) | GI50 (SF-268): > 100 µM (inactive) | GI50 (SF-295): > 100 µM (inactive) | GI50 (SF-539): > 100 µM (inactive) | GI50 (SK-MEL-28): > 100 µM (inactive) | GI50 (SK-MEL-2): > 100 µM (inactive) | GI50 (SK-MEL-5): > 100 µM (inactive) | GI50 (SN12C): > 100 µM (inactive) | GI50 (SNB-19): > 100 µM (inactive) | GI50 (SNB-75): 33 µM (inactive) | GI50 (SR): > 100 µM (inactive) | GI50 (SW-620): > 100 µM (inactive) | GI50 (T47D): > 100 µM (inactive) | GI50 (TK-10): > 100 µM (inactive) | GI50 (U-251): > 100 µM (inactive) | GI50 (UACC-257): > 100 µM (inactive) | GI50 (UACC-62): > 100 µM (inactive) | GI50 (UO-31): 72.4 µM (inactive)

C=C1C(C[C@@H]2O[C@H]3C[C@H]4O[C@@]5(C[C@@H]6O[C@]7(C[C@H](C)[C@@H]8O[C@@H]9CC(C(O)CO)O[C@@H]9C[C@@H]8O7)C[C@H](C)[C@@H]6O5)C[C@H]4O[C@H]3[C@H](C)[C@H]2O)O[C@@H](CC[C@@H]2O[C@@H](CC[C@@]34CC5O[C@H]6C(O[C@H]7CC[C@H](CC(=O)OC)O[C@@H]7[C@@H]6O3)[C@H]5O4)CC2=C)C[C@H]1C (stereo not given in full)
GI50 (786-0): < 0.0001 µM (active) | GI50 (A549): 0.000108 µM (active) | GI50 (ACHN): 0.000658 µM (active) | GI50 (BT-549): < 0.0001 µM (active) | GI50 (CAKI-1): 0.000286 µM (active) | GI50 (CCRF-CEM): < 0.0001 µM (active) | GI50 (COLO 205): < 0.0001 µM (active) | GI50 (DU-145): < 0.0001 µM (active) | GI50 (EKVX): 0.000405 µM (active) | GI50 (HCC 2998): < 0.0001 µM (active) | GI50 (HCT-116): < 0.0001 µM (active) | GI50 (HCT-15): 0.000258 µM | GI50 (HL-60): < 0.0001 µM (active) | GI50 (HOP-62): 0.000396 µM (active) | GI50 (Hs-578T): < 0.0001 µM (active) | GI50 (IGROV-1): < 0.0001 µM (active) | GI50 (K562): < 0.0001 µM (active) | GI50 (KM12): < 0.0001 µM (active) | GI50 (LOX IMVI): < 0.0001 µM (active) | GI50 (M14): 0.000124 µM (active) | GI50 (MCF7): < 0.0001 µM (active) | GI50 (MDA-MB-231): 0.00632 µM (active) | GI50 (MDA-MB-435): < 0.0001 µM (active) | GI50 (MDA-N): < 0.0001 µM (active) | GI50 (MOLT-4): 0.000146 µM (active) | GI50 (NCI-H226): 0.000174 µM (active) | GI50 (NCI-H23): < 0.0001 µM (active) | GI50 (NCI-H460): < 0.0001 µM (active) | GI50 (NCI-H522): < 0.0001 µM (active) | GI50 (NCI/ADR-RES): 0.00466 µM (active) | GI50 (OVCAR-3): < 0.0001 µM (active) | GI50 (OVCAR-4): 0.998 µM (active) | GI50 (OVCAR-5): 0.00142 µM (active) | GI50 (OVCAR-8): 0.000209 µM (active) | GI50 (PC-3): < 0.0001 µM (active) | GI50 (RPMI-8226): < 0.0001 µM (active) | GI50 (RXF 393): < 0.0001 µM (active) | GI50 (SF-268): 0.000184 µM (active) | GI50 (SF-295): < 0.0001 µM (active) | GI50 (SK-MEL-5): < 0.0001 µM (active) | GI50 (SK-OV-3): 0.000243 µM (active) | GI50 (SN12C): 0.000211 µM (active) | GI50 (SNB-19): 0.000304 µM (active) | GI50 (SNB-75): 0.000154 µM (active) | GI50 (SR): < 0.0001 µM (active) | GI50 (SW-620): < 0.0001 µM (active) | GI50 (T47D): 0.01 µM (active) | GI50 (TK-10): 0.0152 µM (active) | GI50 (U-251): < 0.0001 µM (active) | GI50 (UACC-257): < 0.0001 µM (active) | GI50 (UACC-62): < 0.0001 µM (active) | GI50 (UO-31): 0.000904 µM (active)

Cc1c([C@H](C)[C@@H]2NC[C@@H](C)C[C@H]2O)ccc2c1C[C@H]1[C@H]2CC=C2C[C@@H](O)CC[C@@]21C [VERATRAMINE]
GI50 (786-0): 17 µM (inactive) | GI50 (A498): 15.2 µM (inactive) | GI50 (A549): 16.7 µM (inactive) | GI50 (ACHN): 15 µM (inactive) | GI50 (BT-549): 21.1 µM (inactive) | GI50 (CAKI-1): 26.6 µM (inactive) | GI50 (CCRF-CEM): 16.1 µM (inactive) | GI50 (COLO 205): 14.4 µM (inactive) | GI50 (DU-145): 27.6 µM (inactive) | GI50 (EKVX): 2.34 µM (inactive) | GI50 (HCC 2998): 13.2 µM (inactive) | GI50 (HCT-116): 14.3 µM (inactive) | GI50 (HCT-15): 20.2 µM | GI50 (HOP-62): 23.4 µM (inactive) | GI50 (HOP-92): 2.07 µM (inactive) | GI50 (HT-29): 13.7 µM (inactive) | GI50 (Hs-578T): 20.6 µM (inactive) | GI50 (IGROV-1): 16.1 µM (inactive) | GI50 (K562): 12.1 µM (inactive) | GI50 (KM12): 14.5 µM (inactive) | GI50 (LOX IMVI): 11.6 µM (inactive) | GI50 (M14): 15.7 µM (inactive) | GI50 (MCF7): 15.4 µM (inactive) | GI50 (MDA-MB-231): 16.4 µM (inactive) | GI50 (MDA-MB-435): 12.9 µM (inactive) | GI50 (MDA-N): 15.7 µM (inactive) | GI50 (MOLT-4): 13.1 µM (inactive) | GI50 (Malme-3M): 16.2 µM (inactive) | GI50 (NCI-H226): 11.9 µM (inactive) | GI50 (NCI-H23): 11.7 µM (inactive) | GI50 (NCI-H460): 16.9 µM (inactive) | GI50 (NCI-H522): 13 µM (inactive) | GI50 (NCI/ADR-RES): 23.4 µM (inactive) | GI50 (OVCAR-3): 15.6 µM (inactive) | GI50 (OVCAR-4): 12.6 µM (inactive) | GI50 (OVCAR-5): 17.8 µM (inactive) | GI50 (OVCAR-8): 21.9 µM (inactive) | GI50 (PC-3): 11.5 µM (inactive) | GI50 (RPMI-8226): 3.29 µM (inactive) | GI50 (RXF 393): 17.5 µM (inactive) | GI50 (SF-268): 27.7 µM (inactive) | GI50 (SF-295): 12.4 µM (inactive) | GI50 (SK-MEL-28): 17.3 µM (inactive) | GI50 (SK-MEL-5): 10.8 µM (inactive) | GI50 (SK-OV-3): 23.8 µM (inactive) | GI50 (SN12C): 20.4 µM (inactive) | GI50 (SNB-19): 27.8 µM (inactive) | GI50 (SNB-75): 17.5 µM (inactive) | GI50 (SW-620): 28.6 µM (inactive) | GI50 (T47D): 12.9 µM (inactive) | GI50 (TK-10): 24.4 µM (inactive) | GI50 (U-251): 14 µM (inactive) | GI50 (UACC-257): 13.2 µM (inactive) | GI50 (UACC-62): 13 µM (inactive) | GI50 (UO-31): 14 µM (inactive)

Reference: ChEMBL document CHEMBL1201862, “PubChem BioAssay data set” (2004)
